Experimental data published in US9302999B2, “Substituted triazoles as herbicides” (E. I. DU PONT DE NEMOURS AND COMPANY, priority 2012, dated 2016).

Key:
Assay type in all cases: in vivo
[1] = system: corn (Zea mays); experiment: Test A pre-/postemergence: corn; conditions: for Corn plant response rating: Postemergence; for Plant response rating, Corn: Preemergence
How it was run: (§1)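 Compounds, formulated with surfactant in non-phytotoxic solvent, were applied as a directed soil spray preemergence and as postemergence sprays to 2–10 cm, one- to two-leaf seedlings grown in loam soil blended with sand; visual injury, 0–100, assessed ~10 days post-treatment against untreated controls.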

[2] = system: sedge, umbrella (small-flower umbrella sedge, Cyperus difformis); experiment: Test C flooded paddy test: sedge, umbrella; conditions: scale 0 to 100 (0 no effect, 100 complete control)
How it was run: (§2)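 Plants at 2-leaf stage in pots flooded 3 cm above soil; compounds applied directly into the paddy water, depth maintained. Visual rating against controls after 13–15 days in greenhouse, scale 0 (no effect) to 100 (complete control).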

[3] = system: foxtail, giant (giant foxtail, Setaria faberii); experiment: Test A pre-/postemergence: foxtail, giant; conditions: for Foxtail, Giant plant response rating: Postemergence; for Plant response rating, Foxtail, Giant: Preemergence
How it was run: as §1

[4] = system: ducksalad (Heteranthera limosa); experiment: Test C flooded paddy test: ducksalad; conditions: scale 0 to 100 (0 no effect, 100 complete control)
How it was run: as §2

[5] = system: rice (Oryza sativa); experiment: Test C flooded paddy test: rice; conditions: scale 0 to 100 (0 no effect, 100 complete control)
How it was run: as §2

[6] = system: barnyardgrass (Echinochloa crus-galli); experiment: Test C flooded paddy test: barnyardgrass; conditions: scale 0 to 100 (0 no effect, 100 complete control)
How it was run: as §2

[7] = system: barnyardgrass (Echinochloa crus-galli); experiment: Test A pre-/postemergence: barnyardgrass; conditions: for Barnyardgrass plant response rating: Postemergence; for Plant response rating, Barnyardgrass: Preemergence
How it was run: as §1

[8] = system: velvetleaf (Abutilon theophrasti); experiment: Test A pre-/postemergence: velvetleaf; conditions: for Velvetleaf plant response rating: Postemergence; for Plant response rating, Velvetleaf: Preemergence
How it was run: as §1

[9] = system: crabgrass, large (large crabgrass, Digitaria sanguinalis); experiment: Test A pre-/postemergence: crabgrass, large; conditions: for Crabgrass, Large plant response rating: Postemergence; for Plant response rating, Crabgrass, Large: Preemergence
How it was run: as §1

[10] = system: morningglory (Ipomoea spp.); experiment: Test A pre-/postemergence: morningglory; conditions: for Morningglory plant response rating: Postemergence; for Plant response rating, Morningglory: Preemergence
How it was run: as §1

[11] = system: wheat (Triticum aestivum); experiment: Test A pre-/postemergence: wheat; conditions: for Wheat plant response rating: Postemergence; for Plant response rating, Wheat: Preemergence
How it was run: as §1

[12] = system: pigweed (Amaranthus retroflexus); experiment: Test A pre-/postemergence: pigweed; conditions: for Pigweed plant response rating: Postemergence; for Plant response rating, Pigweed: Preemergence
How it was run: as §1

[13] = 125 g ai/ha, 0 to 100 scale, 0 is no effect, 100 is complete control
[14] = 500 g ai/ha, visual rating on 0 to 100 scale (0 no effect, 100 complete control), approximately ten days
[15] = 125 g ai/ha, 0 to 100 scale (0 no effect, 100 complete control)
[16] = 500 g ai/ha, 0 to 100 scale, 0 is no effect, 100 is complete control
[17] = Flood (flooded paddy test), 62 g ai/ha, visual rating after 13 to 15 days
[18] = Flood (flooded paddy test), 125 g ai/ha, visual rating after 13 to 15 days
[19] = Flood (flooded paddy test), 250 g ai/ha, visual rating after 13 to 15 days

Compound: Cc1nn(-c2ccc(C(F)(F)F)nc2)nc1C(=O)c1cccc(C(F)(F)F)c1 [Compound 73]
- Corn plant response rating [1, 13]: 10
- Corn plant response rating [1, 14]: 20
- Plant response rating, Corn [1, 15]: 0
- Plant response rating, Corn [1, 16]: 0
- Plant response rating, Sedge, Umbrella [2, 17]: 0
- Plant response rating, Sedge, Umbrella [2, 18]: 0
- Plant response rating, Sedge, Umbrella [2, 19]: 0
- Plant response rating, Sedge, Umbrella ([2]; Flood, 31 g ai/ha): 0
- Foxtail, Giant plant response rating [3, 13]: 10
- Foxtail, Giant plant response rating [3, 14]: 40
- Plant response rating, Foxtail, Giant [3, 15]: 60
- Plant response rating, Foxtail, Giant [3, 16]: 90
- Plant response rating, Ducksalad [4, 17]: 0
- Plant response rating, Ducksalad [4, 18]: 0
- Plant response rating, Ducksalad [4, 19]: 85
- Plant response rating, Ducksalad ([4]; Flood, 31 g ai/ha): 0
- Plant response rating, Rice [5, 17]: 0
- Plant response rating, Rice [5, 18]: 0
- Plant response rating, Rice [5, 19]: 0
- Plant response rating, Rice ([5]; Flood, 31 g ai/ha): 0
- Plant response rating, Barnyardgrass [6, 17]: 0
- Plant response rating, Barnyardgrass [6, 18]: 0
- Plant response rating, Barnyardgrass [6, 19]: 0
- Plant response rating, Barnyardgrass ([6]; Flood, 31 g ai/ha): 0
- Barnyardgrass plant response rating [7, 13]: 10
- Barnyardgrass plant response rating [7, 14]: 30
- Plant response rating, Barnyardgrass [7, 15]: 0
- Plant response rating, Barnyardgrass [7, 16]: 40
- Velvetleaf plant response rating [8, 13]: 20
- Velvetleaf plant response rating [8, 14]: 40
- Plant response rating, Velvetleaf [8, 15]: 0
- Plant response rating, Velvetleaf [8, 16]: 10
- Crabgrass, Large plant response rating [9, 13]: 20
- Crabgrass, Large plant response rating [9, 14]: 60
- Plant response rating, Crabgrass, Large [9, 15]: 50
- Plant response rating, Crabgrass, Large [9, 16]: 90
- Morningglory plant response rating [10, 13]: 20
- Morningglory plant response rating [10, 14]: 70
- Plant response rating, Morningglory [10, 15]: 0
- Plant response rating, Morningglory [10, 16]: 10
- Wheat plant response rating [11, 13]: 10
- Wheat plant response rating [11, 14]: 20
- Plant response rating, Wheat [11, 15]: 0
- Plant response rating, Wheat [11, 16]: 10
- Pigweed plant response rating [12, 13]: 70
- Pigweed plant response rating [12, 14]: 100
- Plant response rating, Pigweed [12, 15]: 30
- Plant response rating, Pigweed [12, 16]: 100

Compound: Cc1nn(-c2ccc(C(F)(F)F)cc2)nc1Oc1cnn(CC(F)(F)F)c1 [Compound 74]
- Corn plant response rating [1, 13]: 0
- Corn plant response rating [1, 14]: 0
- Plant response rating, Corn [1, 15]: 0
- Plant response rating, Corn [1, 16]: 0
- Plant response rating, Sedge, Umbrella [2, 17]: 0
- Plant response rating, Sedge, Umbrella [2, 18]: 0
- Plant response rating, Sedge, Umbrella [2, 19]: 0
- Plant response rating, Sedge, Umbrella ([2]; Flood, 31 g ai/ha): 0
- Foxtail, Giant plant response rating [3, 13]: 0
- Foxtail, Giant plant response rating [3, 14]: 0
- Plant response rating, Foxtail, Giant [3, 15]: 0
- Plant response rating, Foxtail, Giant [3, 16]: 0
- Plant response rating, Ducksalad [4, 17]: 0
- Plant response rating, Ducksalad [4, 18]: 0
- Plant response rating, Ducksalad [4, 19]: 0
- Plant response rating, Ducksalad ([4]; Flood, 31 g ai/ha): 0
- Plant response rating, Rice [5, 17]: 0
- Plant response rating, Rice [5, 18]: 0
- Plant response rating, Rice [5, 19]: 0
- Plant response rating, Rice ([5]; Flood, 31 g ai/ha): 0
- Plant response rating, Barnyardgrass [6, 17]: 0
- Plant response rating, Barnyardgrass [6, 18]: 0
- Plant response rating, Barnyardgrass [6, 19]: 0
- Plant response rating, Barnyardgrass ([6]; Flood, 31 g ai/ha): 0
- Barnyardgrass plant response rating [7, 13]: 0
- Barnyardgrass plant response rating [7, 14]: 0
- Plant response rating, Barnyardgrass [7, 15]: 0
- Plant response rating, Barnyardgrass [7, 16]: 0
- Velvetleaf plant response rating [8, 13]: 0
- Velvetleaf plant response rating [8, 14]: 0
- Plant response rating, Velvetleaf [8, 15]: 0
- Plant response rating, Velvetleaf [8, 16]: 0
- Crabgrass, Large plant response rating [9, 13]: 0
- Crabgrass, Large plant response rating [9, 14]: 0
- Plant response rating, Crabgrass, Large [9, 15]: 0
- Plant response rating, Crabgrass, Large [9, 16]: 0
- Morningglory plant response rating [10, 13]: 0
- Morningglory plant response rating [10, 14]: 0
- Plant response rating, Morningglory [10, 15]: 0
- Plant response rating, Morningglory [10, 16]: 0
- Wheat plant response rating [11, 13]: 0
- Wheat plant response rating [11, 14]: 0
- Plant response rating, Wheat [11, 15]: 0
- Plant response rating, Wheat [11, 16]: 0
- Pigweed plant response rating [12, 13]: 0
- Pigweed plant response rating [12, 14]: 0
- Plant response rating, Pigweed [12, 15]: 0
- Plant response rating, Pigweed [12, 16]: 0

Compound: COc1nn(-c2ccc(C(F)(F)F)cc2)nc1C(=O)c1ccnc(C(F)(F)F)c1 [Compound 75]
- Corn plant response rating [1, 13]: 0
- Corn plant response rating [1, 14]: 10
- Plant response rating, Corn [1, 15]: 0
- Plant response rating, Corn [1, 16]: 0
- Plant response rating, Sedge, Umbrella [2, 17]: 0
- Plant response rating, Sedge, Umbrella [2, 18]: 0
- Plant response rating, Sedge, Umbrella [2, 19]: 0
- Plant response rating, Sedge, Umbrella ([2]; Flood, 31 g ai/ha): 0
- Foxtail, Giant plant response rating [3, 13]: 10
- Foxtail, Giant plant response rating [3, 14]: 20
- Plant response rating, Foxtail, Giant [3, 15]: 50
- Plant response rating, Foxtail, Giant [3, 16]: 90
- Plant response rating, Ducksalad [4, 17]: 0
- Plant response rating, Ducksalad [4, 18]: 0
- Plant response rating, Ducksalad [4, 19]: 0
- Plant response rating, Ducksalad ([4]; Flood, 31 g ai/ha): 0
- Plant response rating, Rice [5, 17]: 0
- Plant response rating, Rice [5, 18]: 0
- Plant response rating, Rice [5, 19]: 0
- Plant response rating, Rice ([5]; Flood, 31 g ai/ha): 0
- Plant response rating, Barnyardgrass [6, 17]: 0
- Plant response rating, Barnyardgrass [6, 18]: 0
- Plant response rating, Barnyardgrass [6, 19]: 0
- Plant response rating, Barnyardgrass ([6]; Flood, 31 g ai/ha): 0
- Barnyardgrass plant response rating [7, 13]: 0
- Barnyardgrass plant response rating [7, 14]: 10
- Plant response rating, Barnyardgrass [7, 15]: 10
- Plant response rating, Barnyardgrass [7, 16]: 20
- Velvetleaf plant response rating [8, 13]: 10
- Velvetleaf plant response rating [8, 14]: 10
- Plant response rating, Velvetleaf [8, 15]: 0
- Plant response rating, Velvetleaf [8, 16]: 0
- Crabgrass, Large plant response rating [9, 13]: 10
- Crabgrass, Large plant response rating [9, 14]: 20
- Plant response rating, Crabgrass, Large [9, 15]: 20
- Plant response rating, Crabgrass, Large [9, 16]: 70
- Morningglory plant response rating [10, 13]: 0
- Morningglory plant response rating [10, 14]: 30
- Wheat plant response rating [11, 13]: 0
- Wheat plant response rating [11, 14]: 0
- Plant response rating, Wheat [11, 15]: 0
- Plant response rating, Wheat [11, 16]: 10
- Pigweed plant response rating [12, 13]: 30
- Pigweed plant response rating [12, 14]: 60
- Plant response rating, Pigweed [12, 15]: 30
- Plant response rating, Pigweed [12, 16]: 40

Compound: Cc1nn(-c2cccc(Cl)c2)nc1C(=O)c1cccc(C(F)(F)F)c1 [Compound 76]
- Corn plant response rating [1, 13]: 10
- Corn plant response rating [1, 14]: 20
- Plant response rating, Corn [1, 15]: 0
- Plant response rating, Corn [1, 16]: 0
- Plant response rating, Sedge, Umbrella [2, 17]: 0
- Plant response rating, Sedge, Umbrella [2, 18]: 0
- Plant response rating, Sedge, Umbrella [2, 19]: 0
- Plant response rating, Sedge, Umbrella ([2]; Flood, 31 g ai/ha): 0
- Foxtail, Giant plant response rating [3, 13]: 10
- Foxtail, Giant plant response rating [3, 14]: 20
- Plant response rating, Foxtail, Giant [3, 15]: 10
- Plant response rating, Foxtail, Giant [3, 16]: 80
- Plant response rating, Ducksalad [4, 17]: 0
- Plant response rating, Ducksalad [4, 18]: 0
- Plant response rating, Ducksalad [4, 19]: 0
- Plant response rating, Ducksalad ([4]; Flood, 31 g ai/ha): 0
- Plant response rating, Rice [5, 17]: 0
- Plant response rating, Rice [5, 18]: 0
- Plant response rating, Rice [5, 19]: 0
- Plant response rating, Rice ([5]; Flood, 31 g ai/ha): 0
- Plant response rating, Barnyardgrass [6, 17]: 0
- Plant response rating, Barnyardgrass [6, 18]: 0
- Plant response rating, Barnyardgrass [6, 19]: 0
- Plant response rating, Barnyardgrass ([6]; Flood, 31 g ai/ha): 0
- Barnyardgrass plant response rating [7, 13]: 0
- Barnyardgrass plant response rating [7, 14]: 20
- Plant response rating, Barnyardgrass [7, 15]: 0
- Plant response rating, Barnyardgrass [7, 16]: 0
- Velvetleaf plant response rating [8, 13]: 0
- Velvetleaf plant response rating [8, 14]: 10
- Plant response rating, Velvetleaf [8, 15]: 0
- Plant response rating, Velvetleaf [8, 16]: 0
- Crabgrass, Large plant response rating [9, 13]: 10
- Crabgrass, Large plant response rating [9, 14]: 30
- Plant response rating, Crabgrass, Large [9, 15]: 10
- Plant response rating, Crabgrass, Large [9, 16]: 40
- Morningglory plant response rating [10, 13]: 10
- Morningglory plant response rating [10, 14]: 20
- Plant response rating, Morningglory [10, 15]: 0
- Plant response rating, Morningglory [10, 16]: 0
- Wheat plant response rating [11, 13]: 0
- Wheat plant response rating [11, 14]: 20
- Plant response rating, Wheat [11, 15]: 0
- Plant response rating, Wheat [11, 16]: 0
- Pigweed plant response rating [12, 13]: 50
- Pigweed plant response rating [12, 14]: 60
- Plant response rating, Pigweed [12, 15]: 0
- Plant response rating, Pigweed [12, 16]: 20
